Experimental data from ChEMBL document CHEMBL2169792, “Synthesis of new 4-thiazolidinone-, pyrazoline-, and isatin-based conjugates with promising antitumor activity” (J Med Chem, 2012).
The source made the active and inactive calls. No cut-off for these calls is given here.

How the values were obtained:
TK-10 = assay: Cytotoxicity against human TK10 cells assessed as cell growth at 10 uM after 48 hrs by SRB assay; format: functional; conditions: TK-10, 48 h, read-out: Activity
[1] = Cytotoxicity against human non-small cell lung cancer cells after 48 hrs by SRB assay; format: functional; conditions: Cancer cell lines; for CC50: read-out: LC50 (the source's name)
[2] = Cytotoxicity against human prostate cancer cells after 48 hrs by SRB assay; format: functional; conditions: Cancer cell lines
[3] = Cytotoxicity against human breast cancer cells after 48 hrs by SRB assay; format: functional; conditions: Cancer cell lines
[4] = Cytotoxicity against human renal cancer cells after 48 hrs by SRB assay; format: functional; conditions: Cancer cell lines
[5] = Cytotoxicity against human melanoma cells after 48 hrs by SRB assay; format: functional; conditions: Melanoma cell; for CC50: read-out: LC50 (the source's name)
[6] = Cytotoxicity against human ovarian cancer cells after 48 hrs by SRB assay; format: functional; conditions: Cancer cell lines
[7] = Cytotoxicity against human CNS cancer cells after 48 hrs by SRB assay; format: functional; conditions: Cancer cell lines
[8] = Cytotoxicity against human colon cancer cells after 48 hrs by SRB assay; format: functional; conditions: Cancer cell lines
[9] = Cytotoxicity against human leukemia cells after 48 hrs by SRB assay; format: functional; conditions: Leukemia cell; for CC50: read-out: LC50 (the source's name)
OVCAR-4 = assay: Cytotoxicity against human OVCAR4 cells assessed as cell growth at 10 uM after 48 hrs by SRB assay; format: functional; conditions: OVCAR-4, 48 h, read-out: Activity
OVCAR-3 = assay: Cytotoxicity against human OVCAR3 cells assessed as cell growth at 10 uM after 48 hrs by SRB assay; format: functional; conditions: OVCAR-3, 48 h, read-out: Activity
[10] = Toxicity in mouse; format: organism-based; conditions: in vivo
Mus musculus = assay: Antitumor activity in ip dosed athymic nude mouse hollow fiber model assessed as reduction of viable cell mass; format: functional, organism-based
HL-60(TB) = assay: Cytotoxicity against human HL-60(TB) cells assessed as cell growth at 10 uM after 48 hrs by SRB assay; format: functional; conditions: HL-60, 48 h, read-out: Activity
786-0 = assay: Cytotoxicity against human 786-0 cells assessed as cell growth at 10 uM after 48 hrs by SRB assay; format: functional; conditions: 786-0, 48 h, read-out: Activity
SK-MEL-5 = assay: Cytotoxicity against human SK-MEL-5 cells assessed as cell growth at 10 uM after 48 hrs by SRB assay; format: functional; conditions: SK-MEL-5, 48 h, read-out: Activity
MOLT-4 = assay: Cytotoxicity against human MOLT4 cells assessed as cell growth at 10 uM after 48 hrs by SRB assay; format: functional; conditions: MOLT-4, 48 h, read-out: Activity
SNB-75 = assay: Cytotoxicity against human SNB75 cells assessed as cell growth at 10 uM after 48 hrs by SRB assay; format: functional; conditions: SNB-75, 48 h, read-out: Activity
SF-539 = assay: Cytotoxicity against human SF539 cells assessed as cell growth at 10 uM after 48 hrs by SRB assay; format: functional; conditions: SF-539, 48 h, read-out: Activity

| Compound | GI50 [1] | TGI [1] | CC50 [1] | GI50 [2] | TGI [2] | GI50 [3] | LC50 (concentration causing 50% net cell kill) [3] | TGI [3] | GI50 [4] | LC50 [4] | TGI [4] | GI50 [5] | TGI [5] | CC50 [5] | GI50 [6] | LC50 (concentration causing 50% net cell kill) [6] | TGI [6] | GI50 [7] | LC50 (concentration giving 50% net cell kill) [7] | TGI [7] | further results |
| --- | --- | --- | --- | --- | --- | --- | --- | --- | --- | --- | --- | --- | --- | --- | --- | --- | --- | --- | --- | --- | --- |
| COc1ccc(C2CC(c3ccccc3)=NN2C2=NC(=O)/C(=C3\C(=O)N(CC(=O)O)c4ccccc43)S2)cc1 (centres undefined) |  |  |  |  |  |  |  |  |  |  |  |  |  |  |  |  |  |  |  |  | growth at 10 µM (TK-10): 97.3% |
| O=C1Nc2ccc(Br)cc2C1n1nc(-c2ccc3ccccc3c2)cc1-c1ccc(Cl)cc1 (centres undefined) | 3.31 µM | 10 µM | 34.5 µM | 2.57 µM | 8.89 µM | 4.3 µM | 62.1 µM | 14.3 µM | 2.5 µM | 27.2 µM | 7.66 µM | 6.53 µM | 22.4 µM | 56.8 µM | 3.09 µM | 33.2 µM | 9.85 µM | 3.18 µM | 33.3 µM | 10.5 µM | LC50 [2]: 34.4 µM; GI50 [8]: 4.33 µM; LC50 (concentration lethal to 50% of cells) [8]: 51.1 µM; TGI [8]: 15 µM; GI50 [9]: 10.4 µM; TGI [9]: 15.2 µM; CC50 [9]: 79.2 µM; growth at 10 µM (OVCAR-4): 58.5% |
| COc1ccc(C2CC(c3ccccc3)=NN2C2=NC(=O)/C(=C3\C(=O)Nc4ccccc43)S2)cc1 (centres undefined) | 2.38 µM | 6.04 µM | 70.8 µM | 1.52 µM | 3.35 µM | 2.02 µM | 39 µM | 4.58 µM | 2.01 µM | 34.3 µM | 4.27 µM | 2 µM | 4.51 µM | 38 µM | 2.3 µM | 71.1 µM | 19 µM | 1.62 µM | 7.39 µM | 3.45 µM | LC50 [2]: 7.37 µM; GI50 [8]: 1.81 µM; LC50 (concentration lethal to 50% of cells) [8]: 32 µM; TGI [8]: 4.39 µM; GI50 [9]: 1.64 µM; TGI [9]: 20.8 µM; CC50 [9]: 93 µM; growth at 10 µM (OVCAR-3): -51.4% |
| COc1ccc(C2=NN(C3=NC(=O)/C(=C4\C(=O)Nc5ccccc54)S3)C(c3ccc(Cl)cc3)C2)cc1 (centres undefined) | 92.4 µM | 100 µM | 100 µM | 100 µM | 100 µM | 100 µM | 100 µM | 100 µM | 100 µM | 100 µM | 100 µM | 100 µM | 100 µM | 100 µM | 100 µM | 100 µM | 100 µM | 77.5 µM | 100 µM | 100 µM | MTD [10]: > 400 mg/kg; LC50 [2]: 100 µM; GI50 [8]: 100 µM; LC50 (concentration lethal to 50% of cells) [8]: 100 µM; TGI [8]: 100 µM; GI50 [9]: 86.5 µM; TGI [9]: 90.9 µM; CC50 [9]: 100 µM; growth at 10 µM (OVCAR-3): 77.5%; Activity (Mus musculus): inactive |
| CN(C)c1ccc(-c2cc(-c3ccccc3)nn2C2C(=O)Nc3ccccc32)cc1 (centres undefined) | 16.2 µM | 56 µM | 90.9 µM | 16.1 µM | 74 µM | 20.8 µM | 90.1 µM | 73.4 µM | 17.4 µM | 86.2 µM | 57.3 µM | 19.6 µM | 54.5 µM | 91.2 µM | 18.9 µM | 93.3 µM | 67.2 µM | 21.2 µM | 95.1 µM | 68.7 µM | LC50 [2]: 100 µM; GI50 [8]: 16.1 µM; LC50 (concentration lethal to 50% of cells) [8]: 79 µM; TGI [8]: 39.7 µM; GI50 [9]: 16.3 µM; TGI [9]: 74.6 µM; CC50 [9]: 100 µM; growth at 10 µM (HL-60(TB)): 70.9% |
| O=C1Nc2ccc(Br)cc2C1n1nc(-c2ccccc2)cc1-c1ccc(Cl)cc1 (centres undefined) |  |  |  |  |  |  |  |  |  |  |  |  |  |  |  |  |  |  |  |  | growth at 10 µM (786-0): 90.1% |
| COc1ccc(C2=NN(C3=NC(=O)/C(=C4\C(=O)Nc5ccc(Br)cc54)S3)C(c3ccc(Cl)cc3)C2)cc1 (centres undefined) | 0.12 µM | 0.34 µM | 12.4 µM | 0.18 µM | 1.01 µM | 0.14 µM | 19.2 µM | 0.4 µM | 0.14 µM | 4 µM | 0.37 µM | 0.16 µM | 0.34 µM | 0.99 µM | 0.19 µM | 29.8 µM | 14.7 µM | 0.12 µM | 15.7 µM | 1.48 µM | LC50 [2]: 100 µM; GI50 [8]: 0.13 µM; LC50 (concentration lethal to 50% of cells) [8]: 16.1 µM; TGI [8]: 7.44 µM; GI50 [9]: 0.19 µM; TGI [9]: 14 µM; CC50 [9]: 100 µM; growth at 10 µM (SK-MEL-5): -56.4% |
| COc1ccc(-c2cc(-c3ccc4ccccc4c3)nn2C2C(=O)Nc3ccc(Cl)cc32)cc1 (centres undefined) |  |  |  |  |  |  |  |  |  |  |  |  |  |  |  |  |  |  |  |  | growth at 10 µM (MOLT-4): 98.2% |
| O=C(O)CN1C(=O)C(n2nc(-c3ccccc3)cc2-c2ccccc2O)c2ccccc21 (centres undefined) |  |  |  |  |  |  |  |  |  |  |  |  |  |  |  |  |  |  |  |  | growth at 10 µM (SNB-75): 108% |
| COc1ccc(C2CC(c3ccccc3)=NN2C2=NC(=O)/C(=C3\C(=O)Nc4ccc(Br)cc43)S2)cc1 (centres undefined) | 0.2 µM | 0.51 µM | 3.27 µM | 0.24 µM | 0.66 µM | 0.2 µM | 26.5 µM | 0.48 µM | 0.18 µM | 1.27 µM | 0.36 µM | 0.21 µM | 0.55 µM | 5.01 µM | 0.23 µM | 23.4 µM | 3.63 µM | 0.18 µM | 6.48 µM | 0.39 µM | MTD [10]: > 400 mg/kg; LC50 [2]: 39.5 µM; GI50 [8]: 0.19 µM; LC50 (concentration lethal to 50% of cells) [8]: 1.07 µM; TGI [8]: 0.39 µM; GI50 [9]: 0.25 µM; TGI [9]: 4.23 µM; CC50 [9]: 51 µM; growth at 10 µM (SF-539): -55.1%; Activity (Mus musculus): inactive |
| COc1ccc(-c2cc(-c3ccc4ccccc4c3)nn2C2C(=O)Nc3ccccc32)cc1 (centres undefined) |  |  |  |  |  |  |  |  |  |  |  |  |  |  |  |  |  |  |  |  | growth at 10 µM (OVCAR-4): 91.5% |
| O=C1N=C(N2N=C(c3ccccc3)CC2c2ccc(Cl)cc2)S/C1=C1/C(=O)Nc2ccccc21 (centres undefined) | 0.23 µM | 6.29 µM | 30 µM | 0.25 µM | 0.85 µM | 0.32 µM | 39.4 µM | 0.91 µM | 0.27 µM | 22.1 µM | 0.85 µM | 0.28 µM | 0.54 µM | 1 µM | 0.23 µM | 26.7 µM | 0.65 µM | 0.19 µM | 2.07 µM | 0.5 µM | GI50 [8]: 0.19 µM; LC50 (concentration lethal to 50% of cells) [8]: 0.81 µM; TGI [8]: 0.39 µM; GI50 [9]: 0.37 µM; TGI [9]: 70.8 µM; CC50 [9]: 100 µM; growth at 10 µM (SK-MEL-5): -56.9% |
